Reference: US7374748B2, “Pharmaceutical and cosmetic compositions for the protection of the skin from damages induced by sun radiations” (Indena S.p.A., priority 2001, dated 2008)

Test system: hepatic microsomes
Test: antioxidant test with CCl4 as pro-oxidant stimulus and hepatic microsomes as target
Type: biochemical
Conditions: CCl4 as pro-oxidant stimulus, hepatic microsomes as target
Text: They are characterized by excellent antioxidizing and antiinflammatory properties.

## vitamin E
  LC50 (antioxidant activity): 30.0 micrograms per ml
